Measured values published in patent US20050255537A1, “Method for monitoring treatment with a parathyroid hormone” (priority 1999, published 2005).

What was measured:
PICP, BSAP, NTX, DPD = assay: Example 4 population pharmacodynamic models of biochemical markers (PICP, BSAP, NTX, DPD); type: in vivo, human
Description: Population pharmacodynamic models were developed individually for total lumber spine BMD, femoral neck BMD, procollagen 1 carboxy-terminal propeptide (PICP), bone specific alkaline phosphate (BSAP), urinary N-telopeptide (NTX), and urinary free deoxypyridinoline (DPD). These treatment-response models characterized change in the pharmacodynamic endpoints and identified significant patient factors influencing response to therapy.
The time course of biochemical marker response to LY333334 dose was extensively evaluated as part of the overall population pharmacodynamic analyses. Pharmacodynamic models were developed for four biochemical markers: PICP and BSAP (biochemical measures of bone formation); NTX and […] (biochemical measures of bone resorption). Patient-specific factors that explained some of the variability of each model were identified and included in the model. As an additional evaluation, the relationship between LY333334 exposure and PICP response was modeled. Finally, the biochemical markers were evaluated as potential indicators of response to therapy by modeling the relationship between a change in the biochemical endpoint after 1 month of treatment and the increase in spine and femoral neck BMD after 21 months of treatment. […] Additional patient-specific factors were identified, which further decreased the variability in this predictive model.
An extensive investigation was undertaken to evaluate the time course of biochemical markers of bone formation (PICP and BSAP) and resorption (NTX and DPD) during LY333334 therapy. The population pharmacodynamic evaluation of these biochemical markers included data from approximately 340 patients randomly assigned to receive LY333334 40 μg/day (n≅170) or LY333334 20 μg/day (n≅170). […] Pharmacodynamic models based on linear, exponential, and spline functions of time were evaluated. […] These models reflect the complex time course of change in the underlying processes of bone formation and bone resorption occurring throughout the skeleton in response to the anabolic action induced by LY333334.

[1] = test system: men with primary osteoporosis; assay: Example 5 study GHAJ: incident nonvertebral fractures; type: in vivo, human
Method: Four hundred thirty seven men with primary osteoporosis were enrolled in the study. Approximately one-third of die patients were randomly assigned to LY333334 40 μg/day plus calcium and vitamin D, one-third of the patients were randomly assigned to LY333334 20 μg/day plus calcium and vitamin D, and one-third of the patients were randomly assigned to placebo plus calcium and vitamin D. • Number of Subjects: • PTH: Male 437, Female 0, Total 437; • LY333334 20 μg: Male: Total 151. • LY333334 40 μg: Male: Total 139. • Placebo: Male: Total 147. • Diagnosis and Inclusion Criteria: The study patients were men with primary osteoporosis, aged 30 to 85 years, inclusive. L-2 to L-4 vertebrae must have been intact without artifacts, crush fracture or other abnormalities which would have interfered with the analysis of the posterior-anterior lumbar spine bone mineral density (BMD) measurement which must have been at least 2.0 SD below that of young, healthy men. […] Patient Demographic and Other Baseline Characteristics
Although the incidence of nonvertebral fractures was measured, it was not a specified efficacy endpoint. The number of patients reporting at least one incident nonvertebral fracture is tabulated by fracture location in Table 10 (below). […] At individual body sites, the number of fractures was insufficient for a meaningful statistical analysis.

## CC[C@H](C)[C@H](NC(=O)[C@H](CCC(=O)O)NC(=O)[C@H](CO)NC(=O)[C@@H](NC(=O)[C@@H](N)CO)C(C)C)C(=O)N[C@@H](CCC(N)=O)C(=O)N[C@@H](CC(C)C)C(=O)N[C@@H](CCSC)C(=O)N[C@@H](Cc1cnc[nH]1)C(=O)N[C@@H](CC(N)=O)C(=O)N[C@@H](CC(C)C)C(=O)NCC(=O)N[C@@H](CCCCN)C(=O)N[C@@H](Cc1cnc[nH]1)C(=O)N[C@@H](CC(C)C)C(=O)N[C@@H](CC(N)=O)C(=O)N[C@@H](CO)C(=O)N[C@@H](CCSC)C(=O)N[C@@H](CCC(=O)O)C(=O)N[C@@H](CCCN=C(N)N)C(=O)N[C@H](C(=O)N[C@@H](CCC(=O)O)C(=O)N[C@@H](Cc1c[nH]c2ccccc12)C(=O)N[C@@H](CC(C)C)C(=O)N[C@@H](CCCN=C(N)N)C(=O)N[C@@H](CCCCN)C(=O)N[C@@H](CCCCN)C(=O)N[C@@H](CC(C)C)C(=O)N[C@@H](CCC(N)=O)C(=O)N[C@@H](CC(=O)O)C(=O)N[C@H](C(=O)N[C@@H](Cc1cnc[nH]1)C(=O)N[C@@H](CC(N)=O)C(=O)N[C@@H](Cc1ccccc1)C(=O)O)C(C)C)C(C)C [LY333334]
PICP, BSAP, NTX, DPD; 20 and 40 μg/day
  time of BSAP peak response after initiation of treatment: 6 months
  time of maximum PICP: ≤ 1 month
  time of peak urinary DPD concentrations after initiation of treatment: 6 months
PICP, BSAP, NTX, DPD; 40 vs 20 μg/day
  BSAP response in 40 μg/day group greater than 20 μg/day group: 73%
  DPD response in 40 μg/day group greater than 20 μg/day group: 83%
  NTX response in 40 μg/day group greater than 20 μg/day group: 87%
  PICP response in 40 μg/day group greater than 20 μg/day group: 94%
PICP, BSAP, NTX, DPD; about 1 month of therapy
  minimum increase in PICP level in the entire study population: at least 20 pM
PICP, BSAP, NTX, DPD; last observation while on therapy
  time of peak urinary NTX excretion: 12 months
[1]; 20 μg/day
  patients with at least one incident nonvertebral fracture: Ankle: 1
  patients with at least one incident nonvertebral fracture: Other: 0
  patients with at least one incident nonvertebral fracture: Radius: 1
  patients with at least one incident nonvertebral fracture: Ribs: 1
  patients with at least one incident nonvertebral fracture: Total Patients: 2
[1]; 40 μg/day
  patients with at least one incident nonvertebral fracture: Ankle: 0
  patients with at least one incident nonvertebral fracture: Other: 1
  patients with at least one incident nonvertebral fracture: Radius: 0
  patients with at least one incident nonvertebral fracture: Ribs: 0
  patients with at least one incident nonvertebral fracture: Total Patients: 1
[1]; placebo, 20 and 40 μg/day, p=0.670
  treatment difference in proportion of patients having at least one incident nonvertebral fracture: no significant treatment difference
